In the NIST ThermoML archive (doi:10.1016/j.fluid.2015.11.009):
Numbers after ± are expanded uncertainties.

Experiments:
[1] = refractive index (Na D-line) (dimensionless); settings: 298.15 K; 101.33 kPa; Liquid; Standard Abbe refractometry
[2] = 298.15 K; 101.33 kPa; Liquid; Pycnometric method

| SMILES | refractive index [1] | mass density [2] [kg/m3] |
| --- | --- | --- |
| O [water] | 1.3325 ± 0.0004 | – |
| COCOCOC [2,4,6-trioxaheptane] | 1.3789 ± 0.0004 | 957.8 ± 0.3 |
| CCCCO [butan-1-ol] | 1.3967 ± 0.0004 | 805.2 ± 0.3 |
